Legend:
human MDR1 P-gp = human MDR1 P-gp (Homo sapiens (Human), UniProt P08183); experiment: MDCK assay: efflux in MDCK cells transfected with the human MDR1 gene (assay 3); assay type: in vitro ADME; conditions: MDCK-MDR1 cell monolayers, pH 7.4, 37° C., read-out: MDCK efflux ratio (BA/AB)
Procedure: C. Assessment of Efflux in Madin-Darby Canine Kidney Cells Transfected with the Human MDR1 Gene (MDCK Assay) (Assay 3)
Apparent permeability coefficients (PE) of the compounds across the MDCK-MDR1 cell monolayers are measured (pH 7.4, 37° C.) in apical-to-basal (AB) and basal-to-apical (BA) transport direction. AB permeability (PEAB) represents drug absorption from the blood into the brain and BA permeability (PEBA) drug efflux from the brain back into the blood via both passive permeability as well as active transport mechanisms mediated by efflux and uptake transporters that are expressed on the MDCK-MDR1 cells, predominantly by the overexpressed human MDR1 P-gp. The compounds are assigned to permeability/absorption classes by comparison of the AB permeabilities with the AB permeabilities of reference compounds with known in vitro permeability and oral absorption in the human. Identical or similar permeabilities in both transport directions indicate passive permeation, vectorial permeability points to additional active transport mechanisms. Higher PEBA than PEAB indicates the involvement of active efflux mediated by MDR1 P-gp. Active transport is concentration-dependently saturable.
MDCK-MDR1 cells (1-2×10e5 cells/1 cm2 area) are seeded on filter inserts (Costar transwell polycarbonate or PET filters, 0.4 μm pore size) and cultured (DMEM) for 7 days. Subsequently, the MDR1 expression is boosted by culturing the cells with 5 mM sodium butyrate in full medium for 2 days. Compounds are dissolved in appropriate solvent (like DMSO, 1-20 mM stock solutions). Stock solutions are diluted with HTP-4 buffer (128.13 mM NaCl, 5.36 mM KCl, 1 mM MgSO4, 1.8 mM CaCl2, 4.17 mM NaHCO3, 1.19 mM Na2HPO4×7H2O, 0.41 mM NaH2PO4×H2O, 15 mM HEPES, 20 mM glucose, 0.25% BSA, pH 7.4) to prepare the transport solutions (0.1-300 μM compound, final DMSO<=0.5%). The transport solution (TL) is applied to the apical or basolateral donor side for measuring A-B or B-A permeability (3 filter replicates), respectively. The receiver side contains the same buffer as the donor side. Samples are collected at the start and end of experiment from the donor and at various time intervals for up to 2 hours also from the receiver side for concentration measurement by HPLC-MS/MS or scintillation counting. Sampled receiver volumes are replaced with fresh receiver solution.

human CB1R = human CB1R (Homo sapiens (Human), UniProt P21554); experiment: CB1 cAMP (assay 2); assay type: cell-based; conditions: CHO cells expressing human CB1R; inhibition of forskolin-stimulated cAMP
Sequence of human CB1R (P21554 whole entry): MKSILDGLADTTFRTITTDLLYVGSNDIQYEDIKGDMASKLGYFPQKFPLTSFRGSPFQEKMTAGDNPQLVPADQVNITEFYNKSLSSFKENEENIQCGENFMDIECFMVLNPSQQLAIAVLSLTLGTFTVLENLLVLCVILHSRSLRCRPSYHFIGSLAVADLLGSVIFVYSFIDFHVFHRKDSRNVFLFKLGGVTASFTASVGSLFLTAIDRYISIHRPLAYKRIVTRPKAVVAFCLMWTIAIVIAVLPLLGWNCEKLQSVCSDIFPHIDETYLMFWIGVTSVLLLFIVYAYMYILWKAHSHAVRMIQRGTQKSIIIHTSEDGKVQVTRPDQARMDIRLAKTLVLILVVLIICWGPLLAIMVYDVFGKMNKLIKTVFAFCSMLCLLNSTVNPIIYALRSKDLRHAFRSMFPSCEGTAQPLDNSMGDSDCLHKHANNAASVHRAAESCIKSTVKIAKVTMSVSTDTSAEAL

Sequence of human MDR1 P-gp (P08183 whole entry): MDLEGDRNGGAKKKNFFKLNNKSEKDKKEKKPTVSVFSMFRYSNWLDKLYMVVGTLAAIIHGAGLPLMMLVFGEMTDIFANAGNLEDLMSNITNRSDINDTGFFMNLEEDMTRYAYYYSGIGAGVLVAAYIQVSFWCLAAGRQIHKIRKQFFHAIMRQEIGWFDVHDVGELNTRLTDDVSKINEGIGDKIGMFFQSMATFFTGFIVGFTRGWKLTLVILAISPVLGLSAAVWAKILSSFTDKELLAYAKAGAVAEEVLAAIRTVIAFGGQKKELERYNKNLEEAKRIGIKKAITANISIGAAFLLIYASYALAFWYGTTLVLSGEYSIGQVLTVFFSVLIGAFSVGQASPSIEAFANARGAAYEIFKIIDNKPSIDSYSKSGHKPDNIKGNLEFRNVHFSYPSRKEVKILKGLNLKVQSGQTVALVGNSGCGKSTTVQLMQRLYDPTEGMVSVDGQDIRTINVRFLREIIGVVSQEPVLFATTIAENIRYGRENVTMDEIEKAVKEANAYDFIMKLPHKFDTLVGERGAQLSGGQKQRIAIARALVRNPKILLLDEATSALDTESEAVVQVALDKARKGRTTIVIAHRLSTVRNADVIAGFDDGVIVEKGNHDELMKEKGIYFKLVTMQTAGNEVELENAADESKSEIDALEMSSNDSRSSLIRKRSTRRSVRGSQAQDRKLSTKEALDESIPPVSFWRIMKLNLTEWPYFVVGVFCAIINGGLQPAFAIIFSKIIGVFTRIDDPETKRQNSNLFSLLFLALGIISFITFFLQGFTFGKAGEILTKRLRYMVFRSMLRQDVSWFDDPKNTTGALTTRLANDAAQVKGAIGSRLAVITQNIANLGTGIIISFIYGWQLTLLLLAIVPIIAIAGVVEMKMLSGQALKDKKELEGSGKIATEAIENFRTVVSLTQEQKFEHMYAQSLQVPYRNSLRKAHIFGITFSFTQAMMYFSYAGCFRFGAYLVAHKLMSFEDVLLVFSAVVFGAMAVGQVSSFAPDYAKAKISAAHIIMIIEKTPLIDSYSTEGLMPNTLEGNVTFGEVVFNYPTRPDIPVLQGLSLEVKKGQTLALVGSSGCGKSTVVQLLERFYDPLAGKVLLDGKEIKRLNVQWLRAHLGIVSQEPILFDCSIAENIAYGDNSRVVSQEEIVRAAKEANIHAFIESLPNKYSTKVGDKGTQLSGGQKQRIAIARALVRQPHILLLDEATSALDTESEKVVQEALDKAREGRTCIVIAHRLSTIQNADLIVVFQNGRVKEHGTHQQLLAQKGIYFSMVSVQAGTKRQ

| Structure (SMILES) | efflux ratio (human MDR1 P-gp) | EC50 (human CB1R) |
| --- | --- | --- |
| CC(C)(O)c1cc(NC(=O)C(C)(C)S(=O)(=O)C2CCOCC2)on1 [Example 133 WO2010036630] | 4.7 | – |
| CN(CC1CCOCC1)C(C)(C)C(=O)Nc1cc(C(C)(C)C#N)no1 [Example 4] | 0.75 | – |
| CN(C1CCN(S(C)(=O)=O)CC1)C(C)(C)C(=O)Nc1cc(C(C)(C)CO)no1 [Example 47 in WO2010147792] | 14 | – |
| CN(CC1CCOCC1)C(C)(C)C(=O)Nc1nnc(C(C)(C)C#N)s1 [Example 7, N-[5-(Cyano-dimethyl-methyl)-[1,3,4]thiadiazol-2-yl]-2-methyl-2-[methyl-(tetrahydro-pyran-4-ylmethyl)-amino]-propionamide] | 2.1 | – |
| CN(CC1CCOCC1)C(C)(C)C(=O)Nc1cc(C(C)(C)CO)no1 [Example 7 in WO2010147792] | 1.2 | – |
| COCC(C)(C)c1cc(NC(=O)C(C)(C)N(C)CC2CCOCC2)on1 [Example 46 in WO2010147792] | 0.63 | – |
| CC(C)(CO)c1cc(NC(=O)C(C)(C)S(=O)(=O)CC2CCOCC2)on1 [Example 1 in WO2010036630] | 16 | > 50 µM |
| CC(C)(C#N)c1cc(NC(=O)C(C)(C)S(=O)(=O)CC2CCOCC2)on1 [Example 2, N-[3-(Cyano-dimethyl-methyl)-isoxazol-5-yl]-2-methyl-2-(tetrahydro-pyran-4-ylmethanesulfonyl)-propionamide] | 6.5 | – |
| CC(C)(C#N)c1cc(NC(=O)C(C)(C)S(=O)(=O)CCCC(F)(F)F)on1 [Example 1, N-[3-(Cyano-dimethyl-methyl)-isoxazol-5-yl]-2-methyl-2-(4,4,4-trifluoro-butane-1-sulfonyl)-propionamide] | 2.2 | – |
| CC(C)(CO)c1cc(NC(=O)C(C)(C)S(=O)(=O)C2CCOCC2)on1 [Example 2 in WO2010036630] | 7.4 | – |
| CC(C)(C#N)c1cc(NC(=O)C(C)(C)S(=O)(=O)C2CCOCC2)on1 [Example 3] | 2.5 | – |
| CN(C1CCN(S(C)(=O)=O)CC1)C(C)(C)C(=O)Nc1cc(C(C)(C)C#N)no1 [Example 5] | 5.1 | – |
| CN(C1CCN(S(C)(=O)=O)CC1)C(C)(C)C(=O)Nc1nnc(C(C)(C)C#N)s1 [Example 8] | 16 | – |
| COCC(C)(C)c1cc(NC(=O)C(C)(C)S(=O)(=O)C2CCOCC2)on1 [Example 38 in WO2010036630] | 2.3 | 50 µM |
| COCC(C)(C)c1cc(NC(=O)C(C)(C)S(=O)(=O)CC2CCOCC2)on1 [Example 17 in WO2010036630] | 4.8 | – |
| CN(CC1CCOCC1)C(C)(C)C(=O)Nc1nnc(C(C)(C)CO)s1 [Example 30 in WO2010147792] | 5.2 | – |
